According to patent US9101136B2, “Synergistic herbicide/fungicide composition containing certain pyridine carboxylic acids and certain fungicides” (Dow AgroSciences LLC, priority 2010, dated 2015):
Where two headings read alike, the source gives them in different places.

Legend:
Type in all cases: in vivo
[1] = system: kochia (Kochia scoparia L; KCHSC); assay: Postemergence herbicidal activity of mixtures on kochia; parameters: KCHSC Ob: unit: %; settings: for KCHSC Ob (observed control): alone
Procedure: (§1) Seeds of the desired test plant species were planted in Sun Gro MetroMix 306 planting mixture, which typically has a pH of 6.0 to 6.8 and an organic matter content of about 30 percent, in plastic pots with a surface area of 103.2 square centimeters (cm^2). When required to ensure good germination and healthy plants, a fungicide treatment and/or other chemical or physical treatment was applied. The plants were grown for 7-36 days (d) in a greenhouse with an approximate 14-hour (h) photoperiod which was maintained at about 18° C. during the day and 17° C. during the night. Nutrients and water were added on a regular basis and supplemental lighting was provided with overhead metal halide 1000-Watt lamps as necessary. The plants were employed for testing when they reached the second or third true leaf stage.
(§2) Treatments consisted of a cereal fungicide compound (as listed in Tables 1 through 34) and the cereal herbicide, 4-amino-3-chloro-6-(4-chloro-2-fluoro-3-methoxyphenyl)pyridine-2-carboxylic acid, alone and in combination. Weighed amounts of acid, esters (methyl) or salts (triethylammonium, TEA) of 4-amino-3-chloro-6-(4-chloro-2-fluoro-3-methoxyphenyl)pyridine-2-carboxylic acid (Compound I) were placed in 25 milliliter (mL) glass vials and dissolved in a volume of 97:3 volume-to-volume (v/v) acetone/dimethyl sulfoxide (DMSO) to obtain 4.5 milligrams active ingredient per milliliter (mg ai/mL) concentrated solutions. […] The concentrated solutions of Compound I were diluted to 1.5 mg ai/mL with the addition of 2 volumes of an aqueous mixture containing acetone, water, isopropyl alcohol, DMSO, Agri-dex crop oil concentrate, and Triton® X-77 surfactant in a 64.7:26.0:6.7:2.0:0.7:0.01 v/v ratio. A dilution solution was prepared by mixing 1 volume of 97:3 v/v acetone/DMSO and 2 volumes of an aqueous mixture containing acetone, water, isopropyl alcohol, DMSO, Agri-dex crop oil concentrate, and Triton® X-77 surfactant in a 64.7:26.0:6.7:2.0:0.7:0.01 v/v ratio. Compound requirements are based upon a 12 mL application volume at a rate of 187 liters per hectare (L/ha). The concentrated solutions of the cereal fungicides were prepared following the same procedure. Weighed amounts of fungicide were placed in 25 mL glass vials and dissolved in a volume of 97:3 v/v acetone/DMSO to obtain concentrated fungicide solutions. The concentrated solutions of the safener were prepared following the same procedure. Weighed amounts of safener were placed in 25 mL glass vials and dissolved in a volume of 97:3 v/v acetone/DMSO to obtain concentrated safener solutions.
(§3) Spray solutions of the cereal herbicide and the fungicidal compound mixtures were prepared by adding the concentrated solutions to the appropriate amount of dilution solution to form 12 mL spray solution with active ingredients in combinations. Spray solutions of the cereal herbicide, herbicide safener and the fungicidal compound mixtures were prepared by adding the concentrated solutions to the appropriate amount of dilution solution to form 12 mL spray solution with active ingredients in combinations.
(§4) Formulated compounds were applied to the plant material with an overhead Mandel track sprayer equipped with 8002E nozzles calibrated to deliver 187 L/ha over an application area of 0.503 square meters (m^2) at a spray height of 18 inches […] above average plant canopy. Control plants were sprayed in the same manner with the solvent blank.
(§5) The treated plants and control plants were placed in a greenhouse as described above and watered by sub-irrigation to prevent wash-off of the test compounds. After 20-22 d, the condition of the test plants as compared with that of the control plants was determined visually and scored on a scale of 0 to 100 percent where 0 corresponds to no injury and 100 corresponds to complete kill. […]

[2] = system: wild pansy (Viola tricolor L; VIOTR); assay: Postemergence herbicidal activity of mixtures on wild pansy
Procedure: as §1, §2, §3, §4, §5

[3] = system: Russian thistle (Salsola iberica L; SASKR); assay: Postemergence herbicidal activity of mixtures on Russian thistle; settings: for SASKR Ob (observed control): alone
Procedure: as §1, §2, §3, §4, §5

[4] = system: bird's-eye speedwell (Veronica persica L; VERPE); assay: Postemergence herbicidal activity of mixtures on bird's-eye speedwell; settings: for VERPE Ob (observed control): alone
Procedure: as §1, §2, §3, §4, §5

[5] = system: scented mayweed (Matricaria chamomila L; MATCH); assay: Postemergence herbicidal activity of mixtures on scented mayweed; settings: for MATCH Ob (observed control): alone
Procedure: as §1, §2, §3, §4, §5

Wheat = assay: Safening activity of herbicidal compositions on wheat (crop injury); settings: for TRZAS Ob (observed injury): alone
Procedure: as §1, §2, §3, §4, §5

Barley = assay: Safening activity of herbicidal compositions on barley (crop injury); settings: for HORVS Ob (observed injury): alone
Procedure: as §1, §2, §3, §4, §5

[6] = Viola tricolor, post-emergence, alone, read-out: VIOTR Ob (observed control)

CCCC1COC(Cn2cncn2)(c2ccc(Cl)cc2Cl)O1 (stereo not shown) [Propiconazole, 1-[[2-(2,4-dichlorophenyl)-4-propyl-1,3-dioxolan-2-yl]methyl]-1H-1,2,4-triazole] gave a pest or weed control at 31.25 g/ha ([1]; Bassia scoparia, post-emergence, fungicide 31.25 g/ha alone, read-out: KCHSC Ob) of 0%, a pest or weed control at 31.25 g/ha ([2]; Viola tricolor, post-emergence, fungicide 31.25 g/ha alone, read-out: VIOTR Ob) of 0% and a pest or weed control at 31.25 g/ha ([3]; Salsola tragus, post-emergence, fungicide 31.25 g/ha alone, read-out: SASKR Ob) of 0%. For the same compound, the pest or weed control at 31.25 g/ha ([4]; Veronica persica, post-emergence, fungicide 31.25 g/ha alone, read-out: VERPE Ob) was 0% and the pest or weed control at 31.25 g/ha ([5]; Matricaria, post-emergence, fungicide 31.25 g/ha alone, read-out: MATCH Ob) was 0%.
Fc1ccc(Oc2ccnc3cc(Cl)cc(Cl)c23)cc1 [Quinoxyfen, 5,7-dichloro-4-(4-fluorophenoxy)quinoline] was tested, and the pest or weed control at 37.5 g/ha ([1]; Bassia scoparia, post-emergence, fungicide 37.5 g/ha alone, read-out: KCHSC Ob) was 0%, the “KCHSC Ob (observed control)” value ([1]; 37.5 g/ha) was 0% and the pest or weed control at 37.5 g/ha ([2]; Viola tricolor, post-emergence, alone, 37.5 g/ha, read-out: VIOTR Ob (observed control)) was 0%. For the same compound, the pest or weed control at 37.5 g/ha ([2]; Viola tricolor, post-emergence, fungicide 37.5 g/ha alone, read-out: VIOTR Ob) was 0%, the “SASKR Ob (observed control)” value ([3]; 37.5 g/ha) was 0% and the “VERPE Ob (observed control)” value ([4]; 37.5 g/ha) was 0%. For the same compound, the “MATCH Ob (observed control)” value ([5]; 37.5 g/ha) was 0%.
For CC(C)(C)C(O)(CCc1ccc(Cl)cc1)Cn1cncn1 (stereo not drawn) [Tebuconazole, α-[2-(4-chlorophenyl)ethyl]-α-(1,1-dimethylethyl)-1H-1,2,4-triazole-1-ethanol], the “TRZAS Ob (observed injury)” value (Wheat; 62.5 g/ha) was 0%, the “TRZAS Ob (observed injury)” value (Wheat; 250 g/ha) was 0% and the “TRZAS Ob” value (Wheat; fungicide 250 g/ha) was 0. The “KCHSC Ob (observed control)” value ([1]; 31.25 g/ha) was 0%, the “KCHSC Ob (observed control)” value ([1]; 62.5 g/ha) was 0% and the “KCHSC Ob (observed control)” value ([1]; 250 g/ha) was 0%. The “KCHSC Ob” value ([1]; fungicide 250 g/ha) was 0, the pest or weed control at 31.25 g/ha ([2]; Viola tricolor, post-emergence, alone, 31.25 g/ha, read-out: VIOTR Ob (observed control)) was 0% and the pest or weed control at 62.5 g/ha [2, 6] was 0%. The pest or weed control at 250 g/ha ([2]; Viola tricolor, post-emergence, alone, 250 g/ha, read-out: VIOTR Ob (observed control)) was 0%, the “VIOTR Ob” value ([2]; fungicide 250 g/ha) was 0 and the “SASKR Ob (observed control)” value ([3]; 31.25 g/ha) was 0%. For the same compound, the “SASKR Ob (observed control)” value ([3]; 62.5 g/ha) was 0%, the “SASKR Ob (observed control)” value ([3]; 250 g/ha) was 0% and the “SASKR Ob” value ([3]; fungicide 250 g/ha) was 0. The “VERPE Ob (observed control)” value ([4]; 31.25 g/ha) was 0%, the “VERPE Ob (observed control)” value ([4]; 62.5 g/ha) was 0% and the “VERPE Ob (observed control)” value ([4]; 250 g/ha) was 0%. For the same compound, the “VERPE Ob” value ([4]; fungicide 250 g/ha) was 0, the “HORVS Ob (observed injury)” value (Barley; 62.5 g/ha) was 0% and the “HORVS Ob (observed injury)” value (Barley; 250 g/ha) was 0%. The “HORVS Ob” value (Barley; fungicide 250 g/ha) was 0, the “MATCH Ob (observed control)” value ([5]; 31.25 g/ha) was 0% and the “MATCH Ob (observed control)” value ([5]; 62.5 g/ha) was 0%. The “MATCH Ob (observed control)” value ([5]; 250 g/ha) was 0% and the “MATCH Ob” value ([5]; fungicide 250 g/ha) was 0.
For CO/N=C(/C(=O)OC)c1ccccc1CO/N=C(\C)c1cccc(C(F)(F)F)c1 [Trifloxystrobin, methyl (αE)-α-(methoxyimino)-2-[[[[(1E)-1-[3-(trifluoromethyl)phenyl]ethylidene]amino]oxy]methyl]benzeneacetate], the “KCHSC Ob (observed control)” value ([1]; 62.5 g/ha) was 0%, the pest or weed control at 62.5 g/ha [2, 6] was 0% and the “SASKR Ob (observed control)” value ([3]; 62.5 g/ha) was 0%. The “VERPE Ob (observed control)” value ([4]; 62.5 g/ha) was 0% and the “MATCH Ob (observed control)” value ([5]; 62.5 g/ha) was 0%.
For CCCCCC(C)OC(=O)COc1ccc(Cl)c2cccnc12 (stereo not shown) [cloquintocet-mexyl], the “KCHSC Ob (observed control)” value ([1]; 4.4 g/ha) was 0%, the “KCHSC Ob (observed control)” value ([1]; 35 g/ha) was 0% and the pest or weed control at 4.4 g/ha ([2]; Viola tricolor, post-emergence, alone, 4.4 g/ha, read-out: VIOTR Ob (observed control)) was 0%. For the same compound, the pest or weed control at 35 g/ha ([2]; Viola tricolor, post-emergence, alone, 35 g/ha, read-out: VIOTR Ob (observed control)) was 0%, the “SASKR Ob (observed control)” value ([3]; 4.4 g/ha) was 0% and the “SASKR Ob (observed control)” value ([3]; 35 g/ha) was 0%. The “VERPE Ob (observed control)” value ([4]; 4.4 g/ha) was 0%, the “VERPE Ob (observed control)” value ([4]; 35 g/ha) was 0% and the “MATCH Ob (observed control)” value ([5]; 4.4 g/ha) was 0%. For the same compound, the “MATCH Ob (observed control)” value ([5]; 35 g/ha) was 0%.
For “[[2-[(dithiocarboxy)amino]ethyl]carbamo-dithioato(2^−)-κS,κS′]manganese mixture with [[2-[(dithiocarboxy)amino]ethyl]carbamo-dithioato(2^−)-κS,κS′]zinc [Mancozeb]”, the “KCHSC Ob” value ([1]; fungicide 281.25 g/ha alone) was 0%, the “VIOTR Ob” value ([2]; fungicide 281.25 g/ha alone) was 0% and the “SASKR Ob” value ([3]; fungicide 281.25 g/ha alone) was 0%. The “VERPE Ob” value ([4]; fungicide 281.25 g/ha alone) was 0% and the “MATCH Ob” value ([5]; fungicide 281.25 g/ha alone) was 0%.
